This note sets out measurements from US10413541B2, “Oxabicycloheptanes and oxabicycloheptenes for the treatment of depressive and stress disorders” (LIXTE BIOTECHNOLOGY, INC., priority 2015, dated 2019).

In assay [1] the test system is GABAB-GIRK currents in LHb neurons. In kind it is cell-based, mice. Conditions: LB100 0.1 μM in the bath; for I-baclofen current: mean±s.e.m.
In a further assay the test system is C57Bl/6J mice. Briefly: Re-exposure to the context test (freezing) after FsE. The format is in vivo. Conditions: LB100 ip 6-8 h after FsE; one day after FsE. How it is done:
The inescapable shock procedure was previously described in Stamatakis and Stuber 2012. Briefly, we placed mice into standard mouse behavioral chambers (Imetronics) equipped with a metal grid floor. We let them to habituate at the new environment for 5 m. In a 20 m session animals received either 19 or 0 unpredictable foot shocks (1 mA, 500 ms) with an interstimulus interval of 30, 60 or 90 s. We anesthetized mice for patch-clamp electrophysiology 1 h, 24 h, 7 d, 14 d or 30 d after the session ended.
For LB treatment experiments, mice were injected with LB (1.5 mg/Kg i.p.) or saline 6-8 hours after the FsE. The effects of the treatment on the LHb excitability and GABAB-GIRKs currents as well as the behavioural assay were assessed at day 1 or 7. For both electrophysiology and behaviour once treated the animal were housed in groups of 4-6 and let undisturbed until the day of the test.
For this experiment mice were re-exposed 24 h after to the chamber where they received (or not) shocks for a total duration of 5 m. […] The behavior was scored according to a 5-sec instantaneous time-sampling procedure every 25 sec (Fanselow and Bolles 1979). The observer scored the animal as freezing, scanning or active at that instant and then proceeded to the next chamber. […] Thus each animal was scored […], yielding 10 observations for each mouse for total 5 minutes session. […]

Read-outs that look alike come from different tables or passages of the source.

On to `CN1CCN(C(=O)C2C(C(=O)O)[C@H]3CC[C@@H]2O3)CC1` (some centres unmarked) [LB100], for which the “FsE-induced inhibition of GABAB-GIRK currents (I-baclofen CTRL vs FsE)” value in assay [1] is recorded as “sufficient to rescue”; in assay [1] (listed as LB-100) it was “comparable”. Also, the figures for the I-baclofen current in assay [1] (slices from CTRL mice) and in assay [1] (slices from FsE mice) were 88.41±18.64 pA and 85.09±0.67 pA, respectively. Also, the “Freezing score in the re-exposure to the context test” value with C57Bl/6J mice is “did not affect”.
